According to patent publication US20120253032A1, “NOVEL CATIONIC LIPIDS WITH SHORT LIPID CHAINS FOR OLIGONUCLEOTIDE DELIVERY” (priority 2009, published 2012):

Key:
[1] = test system: mRNA transcript for the firefly (Photinus pyralis) luciferase gene; assay: In vivo efficacy in luciferase mouse model (bioluminescence, IVIS imager); details: tail vein injection; for Average % Inhibition of Bioluminescence: LNPs prepared from the cationic lipid with Luc siRNA, 3 mg Kg^−1, imaged 48 hours post dose, relative to pre-dose luminescence
Method: LNPs utilizing compound 4, in the nominal compositions described immediately above, were evaluated for in vivo efficacy and induction of inflammatory cytokines in a luciferase mouse model. The siRNA targets the mRNA transcript for the firefly (Photinus pyralis) luciferase gene (Accession #M15077). […] The in vivo luciferase model employs a transgenic mouse in which the firefly luciferase coding sequence is present in all cells. ROSA26-LoxP-Stop-LoxP-Luc (LSL-Luc) transgenic mice licensed from the Dana Farber Cancer. Institute are induced to express the Luciferase gene by first removing the LSL sequence with a recombinant Ad-Cre virus (Vector Biolabs). Due to the organo-tropic nature of the virus, expression is limited to the liver when delivered via tail vein injection. Luciferase expression levels in liver are quantitated by measuring light output, using an IVIS imager (Xenogen) following administration of the luciferin substrate (Caliper Life Sciences). Pre-dose luminescence levels are measured prior to administration of the RDVs. Luciferin in PBS (15 mg/mL) is intraperitoneally (IP) injected in a volume of 150 uL. After a four minute incubation period mice are anesthetized with isoflurane and placed in the IVIS imager. The RDVs (containing siRNA) in PBS vehicle were tail vein injected n a volume of 0.2 mL. Final dose levels ranged from 0.3 to 3 mg/kg siRNA. PBS vehicle alone was dosed as a control. Three hours post dose, mice were bled retro-orbitally to obtain plasma for cytokine analysis. Mice were imaged 48 hours post dose using the method described above. Changes in luciferin light output directly correlate with luciferase mRNA levels and represent an indirect measure of luciferase siRNA activity. In vivo efficacy results are expressed as % inhibition of luminescence relative to pre-dose luminescence levels. Plasma cytokine levels were determined using the Searchlight multiplexed cytokine chemoluminescent array (Pierce/Thermo). Systemic administration of the luciferase siRNA RDVs decreased luciferase expression in a dose dependant manner.

[2] = test system: IL-6; assay: Mouse in vivo cytokine IL-6 induction (plasma, Searchlight multiplexed cytokine array); details: RDVs containing luciferase siRNA; plasma 3 hours post dose; relative to PBS control
Method: (§1) FIG. 1: Mouse in vivo Cytokine IL-6 Induction 3 hour post injection. LNPs utilizing compound 4, in the nominal compositions described immediately above, were evaluated for in vivo efficacy and induction of inflammatory cytokines in a luciferase mouse model. The siRNA targets the mRNA transcript for the firefly (Photinus pyralis) luciferase gene (Accession #M15077). […] The in vivo luciferase model employs a transgenic mouse in which the firefly luciferase coding sequence is present in all cells. ROSA26-LoxP-Stop-LoxP-Luc (LSL-Luc) transgenic mice licensed from the Dana Farber Cancer. Institute are induced to express the Luciferase gene by first removing the LSL sequence with a recombinant Ad-Cre virus (Vector Biolabs). Due to the organo-tropic nature of the virus, expression is limited to the liver when delivered via tail vein injection. Luciferase expression levels in liver are quantitated by measuring light output, using an IVIS imager (Xenogen) following administration of the luciferin substrate (Caliper Life Sciences). Pre-dose luminescence levels are measured prior to administration of the RDVs. […] In vivo efficacy results are expressed as % inhibition of luminescence relative to pre-dose luminescence levels. Plasma cytokine levels were determined using the Searchlight multiplexed cytokine chemoluminescent array (Pierce/Thermo). […]

[3] = test system: mKC; assay: Mouse in vivo cytokine mKC induction (plasma, Searchlight multiplexed cytokine array); details: RDVs containing luciferase siRNA; plasma 3 hours post dose; relative to PBS control
Method: as §1, with “2:” for “1:”, “mKC” for “IL-6”

| Compound | Average % Inhibition of Bioluminescence [1] [%] | In vivo efficacy (decrease of luciferase expression) ([1]; RDVs containing luciferase siRNA, 0.3 to 3 mg/kg siRNA, 48 hours post dose) | Mouse plasma level of cytokine IL-6 [2] | Mouse plasma level of cytokine mKC [3] |
| --- | --- | --- | --- | --- |
| CCCCCCCCOC[C@H](CN(C)C)OCCCCO[C@H]1CC[C@@]2(C)C(=CC[C@H]3[C@@H]4CC[C@H]([C@H](C)CCCC(C)C)[C@@]4(C)CC[C@@H]32)C1 [Compound 4, (2S)-2-{4-[(3β)-cholest-5-en-3-yloxy]butoxy}-N,N-dimethyl-3-(octyloxy)propan-1-amine] | 87 | Greater efficacy | minimal cytokine induction | minimal cytokine induction |
| CCCCC/C=C\C/C=C\CCCCCCCCOCC(CN(C)C)OCCCCCCCCO[C@H]1CC[C@@]2(C)C(=CC[C@H]3[C@@H]4CC[C@H]([C@H](C)CCCC(C)C)[C@@]4(C)CC[C@@H]32)C1 (stereo partly shown) [Compound 12, S-Octyl CLinDMA, reference compound] | 76 | – | significantly increased | significantly increased |
